These results are taken from US9060519B2, “Insecticidally active pyridyl-thiazole and pyridyl-thiadiazole derivatives” (Syngenta Participations AG, priority 2011, dated 2015).

As a reminder, the melting point is the temperature, or range, at which the solid turns liquid. By pest or weed control is commonly meant the degree to which the test organism was suppressed or injured, in per cent. The low end stands for a weak effect, the high end for a strong effect.

Data set [1] has as its system Myzus persicae (green peach aphid). The data set is described as follows: Activity against Myzus persicae (mixed population, feeding/residual contact activity, preventive). Format: in vivo. Conditions: foliar, 144 h, sunflower leaf discs sprayed, aphids of mixed ages, mortality after 6 days. The method, then: Activity against Myzus persicae (Green Peach Aphid)
(Mixed Population, Feeding/Residual Contact Activity, Preventive)
Sunflower leaf discs were placed on agar in a 24-well microtiter plate and sprayed with test solutions. After drying, the leaf discs were infested with an aphid population of mixed ages. After an incubation period of 6 days, samples were checked for mortality.

Data set [2] concerns Plutella xylostella (diamond back moth). The data set is described as follows: Plutella xylostella (larvicide, feeding/residual contact activity, preventive). Type of data set: in vivo. To be noted: 200 ppm; artificial diet in MTP, L2 larvae; larval mortality, antifeedant, growth regulation after 5 days. As to the method:
Plutella xylostella (Diamond Back Moth) (Larvicide, Feeding/Residual Contact Activity, Preventive) 24-well microtiter plate (MTP) with artificial diet was treated with test solutions by pipetting. After drying, the MTP's were infested with larvae (L2)(10-15 per well). After an incubation period of 5 days, samples were checked for larval mortality, antifeedant and growth regulation.

Regarding `C/C(=N\Oc1ccc2nnc(C)n2n1)c1sc(-c2cccnc2)nc1C` [Compound 1.001], the melting point fell in the range of 200 to 202 °C.
In the case of `C#CCOc1ccc(O/N=C(\C)c2sc(-c3cccnc3)nc2C)nn1` [Compound 1.002], the melting point is 152 to 154 °C.
On the same count and under the same terms, under `COc1ccc(Cl)c(-c2ccc(O/N=C(\C)c3sc(-c4cccnc4)nc3C)nn2)c1` [Compound 1.003] stands 169 to 171 °C; under `C/C(=N\Oc1ccc(C)nn1)c1sc(-c2cccnc2)nc1C` [Compound 1.004], 179 to 181 °C.
Same read-out and setting: then `COc1ccc(O/N=C(\C)c2sc(-c3cccnc3)nc2C)nn1` [Compound 1.005], with 167 to 169 °C.
In turn, `C/C(=N\Oc1ncccc1Cl)c1sc(-c2cccnc2)nc1C` [Compound 1.007] registered a melting point of 126 to 128 °C.
`C/C(=N\Oc1cc(Cl)cnc1Cl)c1sc(-c2cccnc2)nc1C` [Compound 1.008] showed a pest or weed control at 200 ppm in data set [1] of over 80%.
The same measure, in the same setting: then `COc1cc(OC)nc(O/N=C(\C)c2sc(-c3cccnc3)nc2C)n1` [Compound 1.009], with over 80%; and `C/C(=N\Oc1nc(C)cc(C)n1)c1sc(-c2cccnc2)nc1C` [Compound 1.010], with over 80%.
In the case of `C/C(=N\Oc1ccc(C#N)cn1)c1sc(-c2cccnc2)nc1C` [Compound 1.012], the activity result in data set [2] is “over 80%”.
In turn, `C/C(=N\Oc1ncccn1)c1sc(-c2cccnc2)nc1C` [Compound 1.013] showed a pest or weed control at 200 ppm in data set [1] of over 80%.
In data set [1], `COc1cnc(O/N=C(\C)c2sc(-c3cccnc3)nc2C)nc1` [Compound 1.014] yielded a pest or weed control at 200 ppm of over 80%.
In turn, `C/C(=N\Oc1ncc(C(F)(F)F)cn1)c1sc(-c2cccnc2)nc1C` [Compound 1.015] returned a melting point of 165 to 166 °C.
Still for that read-out and setting: under `C/C(=N\Oc1ncc([N+](=O)[O-])cn1)c1sc(-c2cccnc2)nc1C` [Compound 1.018] stands 174 to 176 °C.
With `C/C(=N\Oc1nccc(C)n1)c1sc(-c2cccnc2)nc1C` [Compound 1.029], the pest or weed control at 200 ppm in data set [1] was over 80%.
For the molecule `COCc1cc(C)nc(O/N=C(\C)c2sc(-c3cccnc3)nc2C)n1` [Compound 1.032], the pest or weed control at 200 ppm in data set [1] is over 80%.
The same measure, in the same setting: under `C/C(=N\Oc1ncccn1)c1cnc(-c2cccnc2)s1` [Compound 1.041, 1-[2-(3-pyridyl)thiazol-5-yl]-N-pyrimidin-2-yloxy-ethanimine] stands over 80%.
Molecule `COc1cc(OC)nc(O/N=C(/c2sc(-c3cccnc3)nc2Cl)C(F)(F)F)n1` [Compound 1.043] had a melting point of 109 to 111 °C.
On the same count and under the same terms, under `Clc1nc(-c2cccnc2)sc1/C(=N/Oc1ncccn1)C1CC1` [Compound 1.044] stands 127 to 130 °C; under `Cc1cc(C)nc(O/N=C(/c2sc(-c3cccnc3)nc2Cl)C2CC2)n1` [Compound 1.045], 53 to 55 °C.
In turn, `CC/C(=N\Oc1nc(C)cc(C)n1)c1sc(-c2cccnc2)nc1Cl` [Compound 1.047] gave a pest or weed control at 200 ppm in data set [1] of over 80%.
The molecule `CC/C(=N\Oc1ncccn1)c1sc(-c2cccnc2)nc1Cl` [Compound 1.048] came in with a pest or weed control at 200 ppm in data set [1] of over 80%.
`CC/C(=N\Oc1nc(OC)cc(OC)n1)c1sc(-c2cccnc2)nc1Cl` [Compound 1.049] registered a pest or weed control at 200 ppm in data set [1] of over 80%.
Same read-out and setting: under `C/C(=N\Oc1ncccn1)c1sc(-c2cccnc2)nc1Cl` [Compound 1.050] stands over 80%.
Take `CSc1cc(F)cnc1O/N=C(\C)c1sc(-c2cccnc2)nc1C` [Compound 1.055]: the melting point was 149 to 151 °C.
Regarding `C/C(=N\Oc1ncccc1SC(C)C)c1sc(-c2cccnc2)nc1C` [Compound 1.056], the pest or weed control at 200 ppm in data set [1] is over 80%.
On the same count and under the same terms, then `C/C(=N\Oc1nc(C)cc(C)n1)c1sc(-c2cccnc2)nc1Cl` [Compound 1.057], with over 80%.
Turning to `COc1cc(OC)nc(O/N=C(\C)c2sc(-c3cccnc3)nc2Cl)n1` [Compound 1.058, 1-[4-chloro-2-(3-pyridyl)thiazol-5-yl]-N-(4,6-dimethoxypyrimidin-2-yl)oxy-ethanimine], the pest or weed control at 200 ppm in data set [1] is over 80%.
On the same count and under the same terms, then `COc1nc(OC)nc(O/N=C(\C)c2sc(-c3cccnc3)nc2C)n1` [Compound 1.060], with over 80%.
